Measured values reported in PubChem BioAssay AID248 (DTP/NCI, 2004).
Where “and” joins values, the source holds several entries; their conditions need not be identical. Identical values can stand only once. Inconclusive results and toxic doses are left out. Rule as the data show it: active = T/C of 150% or more; inactive = T/C below 125%.

Tested on: L1210 leukemia ip in BDF1 mice, survival T/C
Assay: NCI In Vivo Anticancer Drug Screen. Data for tumor model L1210 Leukemia (intraperitoneal) in B6D2F1 (BDF1) mice
Settings: endpoint: mean survival time, higher = longer survival
How it was run: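 Read-out is survival time, reported as the treated-group measurement over the vehicle-control measurement.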

[1] = dose: 100.0 mg/kg/injection, schedule: Q04DX002 (ip), vehicle: saline
[2] = dose: 200.0 mg/kg/injection, schedule: Q04DX002 (ip), vehicle: saline
[3] = dose: 400.0 mg/kg/injection, schedule: Q04DX002 (ip), vehicle: saline
[4] = dose: 100.0 mg/kg/injection, schedule: Q04DX003 (ip), vehicle: saline with Tween-80
[5] = dose: 200.0 mg/kg/injection, schedule: Q04DX003 (ip), vehicle: saline with Tween-80
[6] = dose: 400.0 mg/kg/injection, schedule: Q04DX003 (ip), vehicle: saline with Tween-80
[7] = dose: 100.0 mg/kg/injection, schedule: Q01DX001 (ip), vehicle: saline
[8] = dose: 200.0 mg/kg/injection, schedule: Q01DX001 (ip), vehicle: saline
[9] = dose: 400.0 mg/kg/injection, schedule: Q01DX001 (ip), vehicle: saline
[10] = dose: 100.0 mg/kg/injection, schedule: Q01DX009 (ip), vehicle: Klucel (hydroxypropylcellulose) (HPC)
[11] = dose: 200.0 mg/kg/injection, schedule: Q01DX009 (ip), vehicle: Klucel (hydroxypropylcellulose) (HPC)
[12] = dose: 400.0 mg/kg/injection, schedule: Q01DX009 (ip), vehicle: Klucel (hydroxypropylcellulose) (HPC)
[13] = dose: 100.0 mg/kg/injection, schedule: Q04DX003 (ip), vehicle: Klucel (hydroxypropylcellulose) (HPC)
[14] = dose: 200.0 mg/kg/injection, schedule: Q04DX003 (ip), vehicle: Klucel (hydroxypropylcellulose) (HPC)
[15] = dose: 400.0 mg/kg/injection, schedule: Q04DX003 (ip), vehicle: Klucel (hydroxypropylcellulose) (HPC)

Measured: T/C

O=C(CI)Nc1cc(C(F)(F)F)ccc1Cl
inactive: dose: 25.0 mg/kg/injection, schedule: Q04DX003 (ip), vehicle: Klucel (hydroxypropylcellulose) (HPC) 102 % of control | dose: 50.0 mg/kg/injection, schedule: Q04DX003 (ip), vehicle: Klucel (hydroxypropylcellulose) (HPC) 94 % of control

Nc1nnnn1CC(Br)CBr (stereo unspecified)
inactive: [1] 104 % of control | [2] 101 % of control | [3] 90 % of control

N[P+](c1ccccc1)(c1ccccc1)c1ccccc1
inactive: dose: 12.5 mg/kg/injection, schedule: Q04DX002 (ip), vehicle: Klucel (hydroxypropylcellulose) (HPC) 109 % of control | dose: 25.0 mg/kg/injection, schedule: Q04DX002 (ip), vehicle: Klucel (hydroxypropylcellulose) (HPC) 88 % of control

CCOC(=O)CN1CCC(C(=O)OCC)CC1
inactive: dose: 50.0 mg/kg/injection, schedule: Q01DX001 (ip), vehicle: carboxymethylcellulose (CMC) 106 % of control | dose: 100.0 mg/kg/injection, schedule: Q01DX001 (ip), vehicle: carboxymethylcellulose (CMC) 97 % of control | dose: 200.0 mg/kg/injection, schedule: Q01DX001 (ip), vehicle: carboxymethylcellulose (CMC) 103 % of control | dose: 400.0 mg/kg/injection, schedule: Q01DX001 (ip), vehicle: carboxymethylcellulose (CMC) 106 % of control

CCCCn1c(=O)cc(C(=O)O)c2ccccc21
inactive: [4] 101 % of control | [5] 101 % of control | [6] 95 % of control

CCCC/C(=N/Nc1ccc([N+](=O)[O-])cc1[N+](=O)[O-])c1ccc(Cl)cc1
inactive: [7] 98 % of control | [8] 88 % of control | [9] 102 % of control

Clc1ccc2nc(-c3ccc(Cl)c(Cl)c3)cc(-c3ccccc3)c2c1
inactive: [10] 94 % of control | [11] 86 % of control | [12] 97 % of control

c1cc(Sc2ccc(OCC3CO3)cc2)ccc1OCC1CO1 (stereo unspecified)
inactive: dose: 100.0 mg/kg/injection, schedule: Q01DX001 (ip), vehicle: other 94 % of control | dose: 200.0 mg/kg/injection, schedule: Q01DX001 (ip), vehicle: other 97 % of control | dose: 400.0 mg/kg/injection, schedule: Q01DX001 (ip), vehicle: other 92 % of control

CCc1nc(Cl)c(Cl)[nH]1
inactive: dose: 100.0 mg/kg/injection, schedule: Q01DX001 (ip), vehicle: saline with Tween-80 107 % of control | dose: 200.0 mg/kg/injection, schedule: Q01DX001 (ip), vehicle: saline with Tween-80 103 % of control

CC1=NN=S(CC2=C(C(=O)O)N3C(=O)C(NC(=O)C[n+]4cc(=O)o[nH]4)C3SC2)S1 (stereo unspecified)
inactive: dose: 50.0 mg/kg/injection, schedule: Q04DX002 (ip), vehicle: saline 118 % of control | [1] 103 % of control | [2] 114 % of control

CCOC(=O)CC(=Nc1ccccc1OC)C(=O)OCC
inactive: [10] 97 % of control | [13] 105 % of control | [11] 98 % of control | [14] 98 % of control | [12] 91 % of control | [15] 107 % of control

O=C(O)C1CCCCN1[N+](=O)[O-] (stereo unspecified)
inactive: [7] 96 % of control | [8] 100 % of control | [9] 100 % of control

CCC(CC)OC(=O)Nc1cccc(OC(=O)NC)c1
inactive: [4] 104 % of control | [5] 95 % of control

C[N+](C)(C)Cc1ccc([N+](=O)[O-])cc1
inactive: dose: 2.2 mg/kg/injection, schedule: Q01DX001 (ip), vehicle: saline 101 % of control | dose: 3.3 mg/kg/injection, schedule: Q01DX001 (ip), vehicle: saline 97 % of control | dose: 5.0 mg/kg/injection, schedule: Q01DX001 (ip), vehicle: saline 94 % of control | dose: 7.5 mg/kg/injection, schedule: Q01DX001 (ip), vehicle: saline 101 % of control

Nc1cc(N)c(N)cc1N
inactive: dose: 9.38 mg/kg/injection, schedule: Q01DX001 (ip), vehicle: saline 95 % of control | dose: 18.75 mg/kg/injection, schedule: Q01DX001 (ip), vehicle: saline 101 % of control | dose: 37.5 mg/kg/injection, schedule: Q01DX001 (ip), vehicle: saline 111 % of control

Cn1cc([N+](=O)[O-])ccc1=O
inactive: [13] 110 % of control | [14] 116 % of control | [15] 121 % of control

CCOC(=O)c1cnc(SC)nc1NCc1ccc(Cl)c(Cl)c1
inactive: [4] 94 % of control | [5] 102 % of control | [6] 96 % of control

O=[N+]([O-])C(CO)(CO)CO
inactive: dose: 100.0 mg/kg/injection, schedule: Q04DX003 (ip), vehicle: saline 104 % of control | dose: 200.0 mg/kg/injection, schedule: Q04DX003 (ip), vehicle: saline 101 % of control | dose: 400.0 mg/kg/injection, schedule: Q04DX003 (ip), vehicle: saline 101 % of control

COc1ccc(NC(=O)N(CCCl)N=O)cc1OC
active: dose: 4.0 mg/kg/injection, schedule: Q01DX009 (ip), vehicle: Klucel (hydroxypropylcellulose) (HPC) 151 % of control and 152 % of control (2×) | dose: 6.0 mg/kg/injection, schedule: Q01DX009 (ip), vehicle: Klucel (hydroxypropylcellulose) (HPC) 165 % of control | dose: 6.6 mg/kg/injection, schedule: Q01DX009 (ip), vehicle: carboxymethylcellulose (CMC) 206 % of control | dose: 9.0 mg/kg/injection, schedule: Q01DX009 (ip), vehicle: Klucel (hydroxypropylcellulose) (HPC) 220 % of control | dose: 13.0 mg/kg/injection, schedule: Q01DX009 (ip), vehicle: Klucel (hydroxypropylcellulose) (HPC) 167 % of control and 190 % of control | dose: 15.0 mg/kg/injection, schedule: Q01DX001 (ip), vehicle: carboxymethylcellulose (CMC) 168 % of control | dose: 20.0 mg/kg/injection, schedule: Q01DX001 (ip), vehicle: other 227 % of control | dose: 30.0 mg/kg/injection, schedule: Q01DX001 (ip), vehicle: carboxymethylcellulose (CMC) 247 % of control | dose: 30.0 mg/kg/injection, schedule: Q01DX001 (ip), vehicle: other 206 % of control | dose: 45.0 mg/kg/injection, schedule: Q01DX001 (ip), vehicle: other 242 % of control | dose: 60.0 mg/kg/injection, schedule: Q01DX001 (ip), vehicle: carboxymethylcellulose (CMC) 193 % of control
inactive: dose: 0.5 mg/kg/injection, schedule: Q01DX009 (ip), vehicle: Klucel (hydroxypropylcellulose) (HPC) 115 % of control | dose: 1.0 mg/kg/injection, schedule: Q01DX009 (ip), vehicle: Klucel (hydroxypropylcellulose) (HPC) 123 % of control | dose: 1.2 mg/kg/injection, schedule: Q01DX009 (ip), vehicle: Klucel (hydroxypropylcellulose) (HPC) 115 % of control | dose: 1.8 mg/kg/injection, schedule: Q01DX009 (ip), vehicle: Klucel (hydroxypropylcellulose) (HPC) 113 % of control | dose: 2.5 mg/kg/injection, schedule: Q01DX001 (ip), vehicle: carboxymethylcellulose (CMC) 118 % of control | dose: 5.0 mg/kg/injection, schedule: Q01DX001 (ip), vehicle: carboxymethylcellulose (CMC) 118 % of control | dose: 10.0 mg/kg/injection, schedule: Q01DX009 (ip), vehicle: carboxymethylcellulose (CMC) 123 % of control | dose: 15.0 mg/kg/injection, schedule: Q01DX009 (ip), vehicle: carboxymethylcellulose (CMC) 106 % of control | dose: 20.0 mg/kg/injection, schedule: Q01DX009 (ip), vehicle: Klucel (hydroxypropylcellulose) (HPC) 92 % of control

Cc1ccnc(-n2c(N)cc(=O)[nH]c2=S)c1
inactive: [1] 102 % of control | [2] 107 % of control | [3] 107 % of control

CCC1C(=O)NCCNC1=O
inactive: dose: 75.0 mg/kg/injection, schedule: Q01DX001 (ip), vehicle: saline 106 % of control | dose: 150.0 mg/kg/injection, schedule: Q01DX001 (ip), vehicle: saline 93 % of control | dose: 300.0 mg/kg/injection, schedule: Q01DX001 (ip), vehicle: saline 96 % of control
